This is an account of results in BindingDB's records for doi:10.7270/Q25Q4TJ1 (Burnham Center For Chemical Genomics, 2010).

For orientation: IC50 means the concentration that gives 50% inhibition. Low readings indicate inhibition by little substance, high ones a need for much substance.

SMILES strings stand for the structures. A value given as a limit tells only on which side of the number the result lay.

Sequence of Intestinal-type alkaline phosphatase (P24822 whole entry, looked up): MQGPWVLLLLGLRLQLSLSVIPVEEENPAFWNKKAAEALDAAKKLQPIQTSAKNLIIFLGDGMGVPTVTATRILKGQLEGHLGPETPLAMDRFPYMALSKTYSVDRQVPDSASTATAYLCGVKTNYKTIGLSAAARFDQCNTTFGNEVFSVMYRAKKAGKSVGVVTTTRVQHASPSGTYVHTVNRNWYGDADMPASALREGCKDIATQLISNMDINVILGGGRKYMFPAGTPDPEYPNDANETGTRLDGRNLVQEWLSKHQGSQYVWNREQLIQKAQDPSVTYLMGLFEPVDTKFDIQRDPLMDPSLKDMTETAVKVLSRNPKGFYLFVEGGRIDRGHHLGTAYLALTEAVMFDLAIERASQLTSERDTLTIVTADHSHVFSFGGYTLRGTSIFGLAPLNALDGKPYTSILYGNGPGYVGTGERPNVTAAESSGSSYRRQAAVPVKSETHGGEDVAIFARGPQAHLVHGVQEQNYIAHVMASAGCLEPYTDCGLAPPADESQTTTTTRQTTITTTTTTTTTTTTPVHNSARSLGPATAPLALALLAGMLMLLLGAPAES

This test addresses Intestinal-type alkaline phosphatase (Mus musculus, UniProt P24822). Put plainly: PubChem AID 488874.
Compound `O=C(Nn1c(O)csc1=S)C(=O)Nn1c(O)csc1=S` [SMR000349781] gave a concentration for half-maximal inhibition (IC50) of 3.84 µM.

In turn, `O=Nc1[nH]c(=O)c(CC(=O)c2ccccc2)nc1NO` [SMR000539633] returned a half-inhibitory concentration (IC50) of 35.5 µM. With `O=C(O)[C@H]1O[C@@H](Oc2c(-c3ccc(O)c(O)c3)oc3cc(O)cc(=O)c-3c2O)[C@H](O)[C@@H](O)[C@@H]1O` [quercetin glucuronide], the IC50 stood at 3.29 µM. Compound `O=c1c2ccccc2nc(N=NCc2c(O)ccc3ccccc23)n1O` [SMR000145705] displayed an IC50 of 75.3 µM.

In the case of `C=c1[nH]n(Cc2ccccc2)c(=O)c1=Cc1ccc(N(C)C)cc1` [(4Z)-4-[[4-(dimethylamino)phenyl]methylidene]-5-methyl-2-(phenylmethyl)-3-pyrazolone], it took 35.1 µM to reach half-maximal inhibition (IC50). `Cc1c(C(=O)NN=Cc2ccc(O)cc2O)[nH][nH]c1=O` gave an IC50 greater than 100 µM. Consider `CC(N=Nc1ccccc1[N+](=O)[O-])c1ccc([N+](=O)[O-])cc1` (stereo not given), for which the IC50 is greater than 100 µM. In turn, `Cc1cc(Br)ccc1SCC(=O)OCC(=O)C(C#N)c1nc2ccccc2[nH]1` (stereo not given) [2-[(4-bromo-2-methylphenyl)thio]acetic acid [3-cyano-3-(1,3-dihydrobenzimidazol-2-ylidene)-2-oxopropyl] ester] came in with a concentration for half-maximal inhibition (IC50) greater than 100 µM. `CCOC1=CC(=Cc2c(C)[nH]oc2=O)C=C(Br)C1=O` [4-[(Z)-(3-bromo-5-ethoxy-4-oxo-1-cyclohexa-2,5-dienylidene)methyl]-3-methyl-2H-isoxazol-5-one] registered an IC50 of 33.1 µM.

In turn, `CCOC(=O)c1c(C)[nH]c(C(=O)N/N=C/C2C=C([N+](=O)[O-])C=CC2=O)c1C` (stereo not given) [ethyl 2,4-dimethyl-5-[[[(E)-(3-nitro-6-oxocyclohexa-2,4-dien-1-ylidene)methyl]amino]carbamoyl]-1H-pyrrole-3-carboxylate] gave an IC50 greater than 100 µM.
